Data from ChEMBL document CHEMBL1147742, “Design and synthesis of photoaffinity-labeling ligands of the L-prolyl-L-leucylglycinamide binding site involved in the allosteric modulation of the dopamine receptor” (J Med Chem, 2006).
The source made the active and inactive calls. The rule behind the calls is not given here. Where a SMILES comes first, the peptide text is derived from it.

Each compound was assayed against D(2) dopamine receptor (Bos taurus) (UniProt P20288) (assay: Stimulation of [3H]NPA binding to dopamine D2 receptor from bovine striatal membranes in presence of photoaffinity-labeling agents). Conditions: not given.
D(2) dopamine receptor (Bos taurus), sequence (P20288 whole entry): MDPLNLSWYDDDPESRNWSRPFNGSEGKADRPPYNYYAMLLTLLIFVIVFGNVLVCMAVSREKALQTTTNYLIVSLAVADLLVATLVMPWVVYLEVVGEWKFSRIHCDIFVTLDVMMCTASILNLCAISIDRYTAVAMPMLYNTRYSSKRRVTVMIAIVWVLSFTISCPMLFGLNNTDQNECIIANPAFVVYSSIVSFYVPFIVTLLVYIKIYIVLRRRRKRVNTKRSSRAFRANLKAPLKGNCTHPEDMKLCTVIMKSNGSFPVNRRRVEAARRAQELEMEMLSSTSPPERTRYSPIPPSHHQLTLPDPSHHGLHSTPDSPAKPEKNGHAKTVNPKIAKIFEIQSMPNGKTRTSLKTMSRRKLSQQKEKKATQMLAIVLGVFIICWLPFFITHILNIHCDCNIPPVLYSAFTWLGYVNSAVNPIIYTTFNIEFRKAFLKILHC
With `NC(=O)CN1CC[C@@H](NC(=O)[C@@H]2CCCN2)C1=O` the Activity was “inactive”.
`CC(C)C[C@H](NC(=O)[C@@H]1CCCN1)C(=O)NCC(N)=O` (H-Pro-Leu-Gly-NH2) was tested, and the Activity was “inactive”.

The compounds below were run against D(2) dopamine receptor (Bos taurus) (UniProt P20288) (assay: Stimulation of [3H]NPA binding to dopamine D2 receptor in bovine striatal membranes). Conditions: Striatum, Membrane.
Type: cell membranes
For `[N-]=[N+]=Nc1ccc(C(=O)NCCNC(=O)CN2CC[C@@H](NC(=O)[C@@H]3CCCN3)C2=O)cc1`, the Activity was “Active”.
With `[N-]=[N+]=Nc1ccc(C(=O)N[C@H]2CN[C@H](C(=O)N[C@@H]3CCN(CC(N)=O)C3=O)C2)c(O)c1` the Activity was “Active”.
`[N-]=[N+]=Nc1ccc(C(=O)N[C@@H]2CN[C@H](C(=O)N[C@@H]3CCN(CC(N)=O)C3=O)C2)c(O)c1` was tested, and the Activity was “Active”.
`[N-]=[N+]=Nc1ccc(C(=O)N[C@@H]2CN[C@H](C(=O)N[C@@H]3CCN(CC(N)=O)C3=O)C2)cc1` was tested, and the Activity was “Active”.
With `[N-]=[N+]=Nc1ccc(C(=O)NCCNC(=O)CN2CC[C@@H](NC(=O)[C@@H]3CCCN3)C2=O)c(O)c1` the Activity was “Active”.
`NC(=O)CN1CC[C@@H](NC(=O)[C@@H]2CCCN2)C1=O` gave an Activity of 51.1%.
`[N-]=[N+]=Nc1cc(O)c(C(=O)N[C@@H]2CN[C@H](C(=O)N[C@@H]3CCN(CC(N)=O)C3=O)C2)cc1I` was tested, and the Activity was “Active”.
`[N-]=[N+]=Nc1cc(O)c(C(=O)NCCNC(=O)CN2CC[C@@H](NC(=O)[C@@H]3CCCN3)C2=O)cc1I` was tested, and the Activity was “Active”.
In the case of `[N-]=[N+]=Nc1ccc(C(=O)N[C@H]2CN[C@H](C(=O)N[C@@H]3CCN(CC(N)=O)C3=O)C2)cc1`, the Activity is reported as “Active”.
For `CC(C)C[C@H](NC(=O)[C@@H]1CCCN1)C(=O)NCC(N)=O` (H-Pro-Leu-Gly-NH2), the Activity was 24.5%.
